Tests used:
[1] = percentage of injected PF material still in the liver of mice after stated weeks; assay type: in vivo
Text: As indicated above, retention of the material in the body is important. The data below compare perfluorinated tributylamine (PFTBA), decalin (PFD), and methyldecalin (PFMD), with certain of the perfluorinated polycyclic hydrocarbons of this invention which have been obtained by perfluorinating the said polycyclic materials with just CoF3. Thus, in the table below "PFDMA" is the perfluorinated product derived from dimethyladamantane, i.e. a mixture of perfluorotrimethylbicyclo [3.3.1]nonane containing about 25 percent of other materials, principally perfluorinated dimethyladamantane. "PFMA" is the perfluorinated product of methyladamantane i.e., a mixture of perfluorodimethylbicyclo [3.3.1]nonanecontaining an unidentified amount of other compounds including perfluoromethyladamantane. Finally, "PFTHDCP" is the product of tetrahydrodicyclopentadiene, i.e. perfluorobicyclo [5.3.0] decane containing about 50 percent of other materials, principally perfluorotetrahydrodicyclopentadiene.
Emulsions containing 10% of the material to be tested, surfactant and water are made up and tested in the manner specified in Science, Vol. 181, August 1973, page 681. Mice were injected with the various emulsions. The mice were killed at intervals thereafter, the liver analyzed, and the percentage of original amount of PF material injected and still in the liver was determined.

[2] = optical density / appearance of emulsion; assay type: physicochemical; conditions: for optical density of emulsion: emulsions prepared in the same manner
Experimental: (§1) The relative stability of a PFDMA emulsion and PFMA is excellent in that it is stable indefinitely, (e.g., over 6 months) at 4°-7° C whereas the PFD emulsion breaks down in several days at room temperature and in several weeks at 4°-7° C. PFTBA is also excellent. See for example the Journal of Microvascular Research, August 1974.

[3] = relative emulsion stability; assay type: physicochemical
Experimental: as §1

[4] = LD50 after infusion of emulsion; assay type: in vivo; conditions: emulsions: 10.9% PFD, 10% PFDMA, 5% PFMA, 10% PFTBA
Text: The LD50 after infusion (ml/kg) of our materials compared with others are follows: […]

FC1(F)C(F)(F)C(F)(F)C2(F)C(F)(F)C(F)(F)C(F)(F)C(F)(F)C2(F)C1(F)F (centres unmarked) [PFD, perfluorodecalin]
Percent of Dose in Liver After Stated Weeks ([1]; mouse, in vivo, 20160 min): 4%
Percent of Dose in Liver After Stated Weeks ([1]; mouse, in vivo, 60480 min): 2%
Percent of Dose in Liver After Stated Weeks ([1]; mouse, in vivo, 120960 min): 2%
optical density of emulsion [2]: 0.4
time to emulsion break down ([3]; 4°-7° C): several weeks
time to emulsion break down ([3]; room temperature): several days
LD50 after infusion, 1 Hr. [4]: 190 mL/kg
LD50 after infusion, 3 Days [4]: 160 mL/kg
LD50 after infusion, 7 Days [4]: 159 mL/kg

methyldecalin [PFMD]
Percent of Dose in Liver After Stated Weeks ([1]; mouse, in vivo, 20160 min): 30%
Percent of Dose in Liver After Stated Weeks ([1]; mouse, in vivo, 60480 min): 19%
Percent of Dose in Liver After Stated Weeks ([1]; mouse, in vivo, 120960 min): 2%
Percent of Dose in Liver After Stated Weeks ([1]; mouse, in vivo, 201600 min): 2%

FC(F)(F)C(F)(F)C(F)(F)C(F)(F)N(C(F)(F)C(F)(F)C(F)(F)C(F)(F)F)C(F)(F)C(F)(F)C(F)(F)C(F)(F)F [PFTBA, perfluorinated tributylamine]
Percent of Dose in Liver After Stated Weeks ([1]; mice, injected emulsion containing 10% of material, 2 weeks): 38%
Percent of Dose in Liver After Stated Weeks ([1]; mice, injected emulsion containing 10% of material, 6 weeks): 30%
Percent of Dose in Liver After Stated Weeks ([1]; mice, injected emulsion containing 10% of material, 12 weeks): 30%
Percent of Dose in Liver After Stated Weeks ([1]; mice, injected emulsion containing 10% of material, 20 weeks): 30%
optical density of emulsion [2]: 2.2
appearance of emulsion ([2]; in words): very milky in appearance
relative stability of emulsion (in words) ([3]; emulsion): excellent
LD50 after infusion, 1 Hr. [4]: 200 mL/kg
LD50 after infusion, 3 Days [4]: 120 mL/kg
LD50 after infusion, 7 Days [4]: 120 mL/kg
